According to patent publication US20210255205A1, “COMPOSITIONS AND METHODS FOR TREATING METABOLIC DISEASE” (THE REGENTS OF THE UNIVERSITY OF CALIFORNIA, priority 2018, published 2021):

Assays:
[1] = target: T1, Aster-B GRAM domain (Mus musculus, UniProt Q80TI0); assay: protein-lipid overlay (PIP Strips); format: binding; details: lipid strip, 100 pmol lipid per spot
T1 construct: B GRAM (Aster-B1-337) was conducted using PIP Strips (Echelon Biosciences); made in house; host or cells: Sf9 insect cells
T1 sequence (Q80TI0 41-377 limits assumed): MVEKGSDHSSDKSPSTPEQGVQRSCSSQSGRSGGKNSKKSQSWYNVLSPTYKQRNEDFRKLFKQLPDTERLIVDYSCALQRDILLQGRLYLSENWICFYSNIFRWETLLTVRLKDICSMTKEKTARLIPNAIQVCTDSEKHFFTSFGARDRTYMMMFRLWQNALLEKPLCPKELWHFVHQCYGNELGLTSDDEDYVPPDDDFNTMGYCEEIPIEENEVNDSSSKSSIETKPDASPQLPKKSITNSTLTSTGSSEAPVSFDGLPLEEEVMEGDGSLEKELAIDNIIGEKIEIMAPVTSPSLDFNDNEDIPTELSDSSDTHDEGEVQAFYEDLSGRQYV
Protocol: FIG. 9A: Protein-lipid overlay over purified mouse Aster-B GRAM domain with various phospholipid species. PA and PS correspond to phosphatidic acid and phosphatidylserine, respectively. FIG. 9A discloses “6xHis” as SEQ ID NO: 11. FIG. 9B: Purified Aster-B GRAM domain was incubated with sucrose-loaded heavy liposomes containing Dansyl-PE and 80-85% PC or 80-85% PS+/−5% Cholesterol. Liposomes were sedimented, washed, and analyzed by immunoblotting for associated Aster-B Gram protein (anti-His antibody). FIG. 9C: Localization of full-length and B ΔGRAM Aster-B-GFP constructs with plasma membrane (CellMask stain) expressed in HeLa cells in the presence or absence of cholesterol loading imaged by live cell confocal microscopy. […] FIG. 9E: Quantification of Aster-B PH-EGFP intensity in the TIRF plane upon cholesterol loading (left panel; n=2-3 cells, error bars+/−SD). […] TIRF videos recorded 5 slices (slices 3-5 were used to calculate FO) before cholesterol addition. […]
(§1) The Aster proteins contain an N-terminal GRAM domain, a structural motif related to the pleckstrin homology domain that is found in glucosyltransferases, Rab-like GTPase activators, myotubularins, and other membrane-associated proteins. […] Given that phosphatidylserine is highly enriched in the inner leaflet of the PM, it was further determined if the Aster-B GRAM domain was associated with phosphatidylserine-containing liposomes.

[2] = target: T1, Aster-B GRAM domain; assay: liposome co-sedimentation assay; format: binding; details: sucrose-loaded heavy liposomes, 80-85% PC or PS
Protocol: FIG. 9A: Protein-lipid overlay over purified mouse Aster-B GRAM domain with various phospholipid species. PA and PS correspond to phosphatidic acid and phosphatidylserine, respectively. FIG. 9A discloses “6xHis” as SEQ ID NO: 11. FIG. 9B: Purified Aster-B GRAM domain was incubated with sucrose-loaded heavy liposomes containing Dansyl-PE and 80-85% PC or 80-85% PS+/−5% Cholesterol. Liposomes were sedimented, washed, and analyzed by immunoblotting for associated Aster-B Gram protein (anti-His antibody). FIG. 9C: Localization of full-length and B ΔGRAM Aster-B-GFP constructs with plasma membrane (CellMask stain) expressed in HeLa cells in the presence or absence of cholesterol loading imaged by live cell confocal microscopy. […] FIG. 9E: Quantification of Aster-B PH-EGFP intensity in the TIRF plane upon cholesterol loading (left panel; n=2-3 cells, error bars+/−SD). […] TIRF videos recorded 5 slices (slices 3-5 were used to calculate FO) before cholesterol addition.
as §1

interaction with purified Aster-B GRAM domain [1]: interacted strongly
co-sedimentation of GRAM domain with liposomes [2]: pelleted with
Substance: phosphatidylserine [phosphatidylserine (PS)]
